A value given as a limit tells only on which side of the number the result lay.

The subject of the first test is HCT116 cells. Put plainly: Cell viability assay (CellTiter-Glo, 72 hours) in HCT116 human colorectal cancer cells. It is filed as cell-based. The following applies: Homo sapiens, HCT-116; Table 5; HCT116, 72 hours; read-out: Activity. An outline of the steps:
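Ten-point IC50 came from an asymmetric five-parameter fit of luminescence corrected to vehicle wells. ATP content was measured by CellTiter-Glo 72 h after dosing at 37 °C. Cells were seeded at 2,000/well the day before, with 0.5% DMSO in all wells.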
Take `CC#CCN1C(=O)c2ccc(C#N)cc2Sc2cc(Nc3nnccc3C#N)ccc21` [10-(But-2-yn-1-yl)-7-((4-cyanopyridazin-3-yl)amino)-11-oxo-10,11-dihydrodibenzo[b,f][1,4]thiazepine-3-carbonitrile]: the IC50 was < 500 nM.
Same read-out and setting: the result for `CC#CCN1C(=O)c2ccccc2Sc2cc(Nc3ccc(C#N)nn3)ccc21` [6-((10-(But-2-yn-1-yl)-11-oxo-10,11-dihydrodibenzo[b,f][1,4]thiazepin-7-yl)amino)pyridazine-3-carbonitrile] reads < 500 nM; that for `CCC/C=C/CN1C(=O)c2ccccc2Sc2cc(Nc3ncc(C)cc3C)ccc21` [(E)-7-((3,5-Dimethylpyridin-2-yl)amino)-10-(hex-2-en-1-yl)dibenzo[b,f][1,4]thiazepin-11 (10H)-one], < 500 nM; that for `CCC/C=C/CN1C(=O)c2ccccc2Sc2cc(Nc3ncccc3C)ccc21` [(E)-10-(Hex-2-en-1-yl)-7-((3-methylpyridin-2-yl)amino)dibenzo[b,f][1,4]thiazepin-11 (10H)-one], < 500 nM.
Still for that read-out and setting: for `CCC/C=C/CN1C(=O)c2ccccc2Sc2cc(Nc3cnccn3)ccc21` [(E)-10-(Hex-2-en-1-yl)-7-(pyrazin-2-ylamino)dibenzo[b,f][1,4]thiazepin-11 (10H)-one] the value was < 500 nM.
The same measure, in the same setting: the result for `CC#CCN1C(=O)c2ccccc2Sc2cc(Nc3ncnc(Cl)n3)ccc21` [10-(But-2-yn-1-yl)-7-((4-chloro-1,3,5-triazin-2-yl)amino)dibenzo[b,f][1,4]thiazepin-11 (10H)-one] reads 1000 to 5000 nM.
Consider `CCC/C=C/CN1C(=O)c2ccccc2Sc2cc(Nc3cc(C#N)ccn3)ccc21` [(E)-2-((10-(Hex-2-en-1-yl)-11-oxo-10,11-dihydrodibenzo[b,f][1,4]thiazepin-7-yl)amino) isonicotinonitrile], for which the IC50 is 500 to 1000 nM.
On the same count and under the same terms, the result for `CC#CCN1C(=O)c2ccc(F)cc2Sc2cc(Nc3ncccc3C3CC3)ccc21` [10-(But-2-yn-1-yl)-7-((3-cyclopropylpyridin-2-yl)amino)-3-fluorodibenzo[b,f][1,4]thiazepin-11 (10H)-one] reads < 500 nM.

The same test, now with this note: Homo sapiens, HCT-116; Table 6; HCT116, 72 hours; read-out: Activity.
In the case of `CC#CCN1C(=O)c2ccccc2Sc2cc(NC3CCOC3)ccc21` (stereo not drawn) [10-(But-2-yn-1-yl)-7-((tetrahydrofuran-3-yl)amino)dibenzo[b,f][1,4]thiazepin-11 (10H)-one], the IC50 is < 500 nM.

Still in this test, the particulars now being: Homo sapiens, HCT-116; read-out: IC50s (cellular activity of MM017 derivatives).
Consider `COCCN1C(=O)c2ccccc2Sc2cc(NC(=O)c3ccc(OC(F)(F)F)cc3)ccc21` [compound 4], for which the IC50 stood at 2100 nM.

The test is the same for the next values; noted with them: Table 5; HCT116, 72 hours; read-out: Activity.
For the compound `CC=CCN1C(=O)c2ccccc2Sc2cc(Nc3ncccc3C)cnc21`, the IC50 was < 500 nM.
Same read-out and setting: the result for `C#CCN1C(=O)c2ccccc2Sc2cc(Nc3nc(C)cnc3C)cnc21` reads < 500 nM.

Still in this test, the particulars now being: Table 6; HCT116, 72 hours; read-out: Activity.
In the case of `CC#CCN1C(=O)c2ccccc2Sc2cc(NC3CC(O)C3)cnc21` (stereo not drawn) [Table 6: —CH2CCMe; 3-HOcBu; CH/N; S], the IC50 is < 500 nM.
As to `CC#CCN1C(=O)c2ccccc2Cc2cc(NC34CC(OC)(C3)C4)ccc21`, the IC50 was < 500 nM.
The same measure, in the same setting: the result for `CC#CCN1C(=O)c2ccccc2Sc2cc(NCCCOC)ccc21` [Table 6: —CH2CCMe; (CH2)3OMe; CH/CH; S] reads < 500 nM.

The same test, now with this note: Table 7; cell viability assay, CellTiter-Glo, 72 hours; scaffold drawing 42 with R^2, R^3, X/Y, Z; read-out: Activity.
For `COCCN1C(=O)c2ccccc2Sc2cc(NC(=O)c3cnccn3)ccc21` [—(CH2)2OMe; pyrazin-2-yl; CH/CH; S], the IC50 lay within 1000 to 5000 nM.
On the same count and under the same terms, the result for `C=CCCCOCCN1C(=O)c2ccccc2Sc2cc(NC(=O)c3ccoc3)ccc21` reads < 500 nM; that for `CCCCCCN1C(=O)c2ccccc2Sc2cc(NC(=O)c3ccoc3)ccc21` [-nHexyl; furan-3-yl; CH/CH; S], < 500 nM.
The same measure, in the same setting: the result for `CNC(=O)c1cccc(C(=O)Nc2ccc3c(c2)Sc2ccccc2C(=O)N3CCOC)c1` [—(CH2)2OMe; 3-MeNHC(O)Ph; CH/CH; S] reads 1000 to 5000 nM.
On the same count and under the same terms, for `COCCN1C(=O)c2ccccc2Sc2cc(NC(=O)C3CCCCC3)ccc21` [—(CH2)2OMe; cHex; CH/CH; S] the value was 1000 to 5000 nM.

Staying with this test, now noted: Table 8; analogs of scaffold drawing 43 defined by R^2, R^3, X/Y, W; read-out: Activity (IC50 class, cell viability assay).
For `CC#CCN1C(=O)c2cc(F)ccc2Sc2cc(NC(=O)[C@H]3C[C@@H](OC)C3)cnc21` [—CH2CCMe; cis-3-MeOcBu; CH/CF; N], the IC50 was < 500 nM.
Still for that read-out and setting: for `CC#CCN1C(=O)c2cc(F)ccc2Sc2cc(NC(=O)C3CC4(CC(O)C4)C3)cnc21` (stereo not drawn) the value was < 500 nM.
The same measure, in the same setting: for `CC#CCN1C(=O)c2ccccc2Sc2cc(NC(=O)[C@@H]3C[C@H]3C(=O)OC)cnc21` (relative stereo) [—CH2CCMe; trans-2-MeO2C-cPr; CH/CH; N] the value was < 500 nM.
Same read-out and setting: for `CC#CCN1C(=O)c2ccc(F)cc2Sc2cc(NC(=O)[C@@H]3C[C@H]3CO)cnc21` (relative stereo) [—CH2CCMe; trans-2-HOCH2-cPr; CF/CH; N] the value was < 500 nM.
For the compound `CC#CCN1C(=O)c2ccc(F)cc2Sc2cc(NC(=O)C3CC4(CC(=NO)C4)C3)cnc21` (stereo not drawn), the IC50 was < 500 nM.
Same read-out and setting: the result for `O=C(Nc1cnc2c(c1)Sc1ccccc1C(=O)N2CC#CC1CC1)[C@@H]1C[C@H]1CO` (relative stereo) [—CH2CC^cPr; trans-2-HOCH2-cPr; CH/CH; N] reads < 500 nM.
Same read-out and setting: for `COC12CC(C(=O)Nc3cnc4c(c3)Sc3ccccc3C(=O)N4CC#CC(F)(F)F)(C1)C2` the value was < 500 nM; for `COCC=CC(=O)Nc1ccc2c(c1)Sc1ccccc1C(=O)N2CC#CC(F)(F)F` [—CH2CCCF3; CH═CHCH2OMe; CH/CH; CH], < 500 nM; for `CC#CCN1C(=O)c2cc(F)ccc2Sc2cc(NC(=O)c3ccc(OC)cc3)ccc21` [—CH2CCMe; 4-MeOPh; CH/CF; CH], < 500 nM.
Same read-out and setting: the result for `CC#CCN1C(=O)c2cc(F)ccc2Sc2cc(NC(=O)C=CCO)ccc21` [—CH2CCMe; CH═CHCH2OH; CH/CF; CH] reads < 500 nM.
For `CC#CCN1C(=O)c2ccccc2Sc2cc(NC(=O)C=CCOC)cnc21` [—CH2CCMe; CH—CHCH2OMe; CH/CH; N], the IC50 is < 500 nM.
Still for that read-out and setting: the result for `CC#CCN1C(=O)c2ccccc2Sc2cc(NC(=O)C=CCO)ccc21` [—CH2CCMe; CH—CHCH2OH; CH/CH; CH] reads < 500 nM; that for `CC#CCN1C(=O)c2cc(F)ccc2Sc2cc(NC(=O)[C@@H]3C[C@H]3CO)cnc21` (relative stereo) [—CH2CCMe; trans-2-HOCH2-cPr; CH/CF; N], < 500 nM.
Same read-out and setting: the result for `CC#CCN1C(=O)c2ccccc2Sc2cc(NC(=O)CCCO)ccc21` [—CH2CCMe; (CH2)3OH; CH/CH; CH] reads < 500 nM.

Staying with this test, now noted: Table 9; HCT116, 72 hours; read-out: Activity.
Consider `CC#CCN1C(=O)c2ccccc2C(C)c2cc(NC(=O)CCCOC)ccc21` (stereo not drawn) [Table 9: —CH2CCMe; (CH2)3OMe; CHMe], for which the IC50 is < 500 nM.
On the same count and under the same terms, the result for `CC1c2ccccc2C(=O)N(CC#CC2CC2)c2ccc(NC(=O)C3CCCO3)cc21` (stereo not drawn) reads < 500 nM.
Same read-out and setting: for `CC#CCN1C(=O)c2ccccc2C(C)c2cc(NC(=O)C3CCOC3)ccc21` (stereo not drawn) the value was < 500 nM; for `CO[C@H]1C[C@@H](C(=O)Nc2ccc3c(c2)C(C)(O)c2ccccc2C(=O)N3CC#CC2CC2)C1` (stereo partly drawn) [Table 9: —CH2CCcPr; cis-3-MeOcBu; CMeOH], < 500 nM; for `COC1CC(C(=O)Nc2ccc3c(c2)C(C)c2ccccc2C(=O)N3CC#CC2CC2)C1` (stereo not drawn), < 500 nM.
Still for that read-out and setting: for `CC1c2ccccc2C(=O)N(CC#CC2CC2)c2ccc(NC(=O)C3CC4(CC(O)C4)C3)cc21` (stereo not drawn) the value was < 500 nM.
On to `COC12CC(C(=O)Nc3ccc4c(c3)C(C#N)c3ccccc3C(=O)N4CC#CCF)(C1)C2` (stereo not drawn), for which the IC50 is < 500 nM.
On the same count and under the same terms, for `CC#CCN1C(=O)c2ccccc2C(C)c2cc(NC(=O)[C@@H]3C[C@H]3C(=O)OC)ccc21` (relative stereo) the value was < 500 nM.

Values taken from patent US20260097047A1, “Small molecule inhibitors of the ribosome biogenesis factor NVL2” (Board of Regents, The University of Texas System, priority 2023, published 2026).
